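Following 48 hours of exposure in 96-well plates, responses at five concentrations were used to interpolate endpoints linearly. TGI denotes the concentration required for complete inhibition of growth.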
What was measured:
Assay in all cases: NCI tumour cell line growth inhibition, 48 h
A498 renal = test system: A498 renal
A549 NSCLC = test system: A549 NSCLC
CAKI-1 renal = test system: CAKI-1 renal
CCRF-CEM leukemia = test system: CCRF-CEM leukemia
COLO 205 colon = test system: COLO 205 colon
DLD-1 colon = test system: DLD-1 colon
DMS 114 small cell lung = test system: DMS 114 small cell lung
DMS 273 small cell lung = test system: DMS 273 small cell lung
EKVX NSCLC = test system: EKVX NSCLC
HCC-2998 colon = test system: HCC-2998 colon
HCT-116 colon = test system: HCT-116 colon
HCT-15 colon = test system: HCT-15 colon
HOP-18 NSCLC = test system: HOP-18 NSCLC
HOP-62 NSCLC = test system: HOP-62 NSCLC
HOP-92 NSCLC = test system: HOP-92 NSCLC
HT29 colon = test system: HT29 colon
IGROV1 ovarian = test system: IGROV1 ovarian
K-562 leukemia = test system: K-562 leukemia
KM12 colon = test system: KM12 colon
KM20L2 colon = test system: KM20L2 colon
LOX IMVI melanoma = test system: LOX IMVI melanoma
M19-MEL melanoma = test system: M19-MEL melanoma
MALME-3M melanoma = test system: MALME-3M melanoma
MCF7 breast = test system: MCF7 breast
MOLT-4 leukemia = test system: MOLT-4 leukemia
NCI-H226 lung = test system: NCI-H226 lung
NCI-H23 lung = test system: NCI-H23 lung
NCI-H460 lung = test system: NCI-H460 lung
NCI-H522 lung = test system: NCI-H522 lung
NCI/ADR-RES ovarian = test system: NCI/ADR-RES ovarian
OVCAR-3 ovarian = test system: OVCAR-3 ovarian
OVCAR-4 ovarian = test system: OVCAR-4 ovarian
OVCAR-5 ovarian = test system: OVCAR-5 ovarian
OVCAR-8 ovarian = test system: OVCAR-8 ovarian
P388 leukemia = test system: P388 leukemia
P388/ADR leukemia = test system: P388/ADR leukemia
RPMI-8226 leukemia = test system: RPMI-8226 leukemia
RXF 393 renal = test system: RXF 393 renal
SF-268 CNS = test system: SF-268 CNS
SF-295 CNS = test system: SF-295 CNS
SF-539 CNS = test system: SF-539 CNS
SK-MEL-2 melanoma = test system: SK-MEL-2 melanoma
SK-MEL-28 melanoma = test system: SK-MEL-28 melanoma
SK-MEL-5 melanoma = test system: SK-MEL-5 melanoma
SK-OV-3 ovarian = test system: SK-OV-3 ovarian
SN12C renal = test system: SN12C renal
SN12K1 renal = test system: SN12K1 renal
SNB-75 CNS = test system: SNB-75 CNS
SNB-78 CNS = test system: SNB-78 CNS
SW-620 colon = test system: SW-620 colon
U251 CNS = test system: U251 CNS
UACC-257 melanoma = test system: UACC-257 melanoma
UACC-62 melanoma = test system: UACC-62 melanoma
UO-31 renal = test system: UO-31 renal

C[C@@]12CC[C@H]3[C@@H]4CCC(=O)N[C@@]4(C)CC[C@@H]3[C@@]1(C)CC[C@H](OC(=O)Cc1ccc(N(CCCl)CCCl)cc1)C2
TGI (A498 renal): 32.8 µM | TGI (A549 NSCLC): 30.4 µM | TGI (CAKI-1 renal): 30.5 µM | TGI (CCRF-CEM leukemia): 35.1 µM | TGI (COLO 205 colon): 38.3 µM | TGI (DLD-1 colon): 47.1 µM | TGI (DMS 114 small cell lung): 28.8 µM | TGI (DMS 273 small cell lung): 30.3 µM | TGI (EKVX NSCLC): 31.3 µM | TGI (HCC-2998 colon): 31.2 µM | TGI (HCT-116 colon): 29.9 µM | TGI (HCT-15 colon): 36.1 µM | TGI (HOP-18 NSCLC): 34 µM | TGI (HOP-62 NSCLC): 31.1 µM | TGI (HOP-92 NSCLC): 35.3 µM | TGI (HT29 colon): 27.8 µM | TGI (IGROV1 ovarian): 31.3 µM | TGI (K-562 leukemia): 48.7 µM | TGI (KM12 colon): 44.5 µM | TGI (KM20L2 colon): 32.7 µM | TGI (LOX IMVI melanoma): 27.8 µM | TGI (M19-MEL melanoma): 32.8 µM | TGI (MALME-3M melanoma): 36.1 µM | TGI (MCF7 breast): 24.7 µM | TGI (MOLT-4 leukemia): 38.8 µM | TGI (NCI-H226 lung): 33.2 µM | TGI (NCI-H23 lung): 30.3 µM | TGI (NCI-H460 lung): 28.2 µM | TGI (NCI-H522 lung): 34.4 µM | TGI (NCI/ADR-RES ovarian): 37 µM | TGI (OVCAR-3 ovarian): 34.6 µM | TGI (OVCAR-4 ovarian): 32.2 µM | TGI (OVCAR-5 ovarian): 31.5 µM | TGI (OVCAR-8 ovarian): 33.1 µM | TGI (P388 leukemia): 32 µM | TGI (P388/ADR leukemia): 58.8 µM | TGI (RPMI-8226 leukemia): 56 µM | TGI (RXF 393 renal): 32 µM | TGI (SF-268 CNS): 31.9 µM | TGI (SF-295 CNS): 31.5 µM | TGI (SF-539 CNS): 33.4 µM | TGI (SK-MEL-2 melanoma): > 100 µM | TGI (SK-MEL-28 melanoma): 33 µM | TGI (SK-MEL-5 melanoma): 27.1 µM | TGI (SK-OV-3 ovarian): 28.5 µM | TGI (SN12C renal): 29.1 µM | TGI (SN12K1 renal): 32.5 µM | TGI (SNB-75 CNS): 33.5 µM | TGI (SNB-78 CNS): 39.2 µM | TGI (SW-620 colon): 34.1 µM | TGI (U251 CNS): 28.8 µM | TGI (UACC-257 melanoma): 55.8 µM | TGI (UACC-62 melanoma): 30.5 µM | TGI (UO-31 renal): 33.3 µM

Reference: PubChem BioAssay (NCI)
